The structures appear in SMILES notation.

Experiment [1] has as its system rat liver mitochondria. Kind of experiment: Membrane potential-dependent uptake into isolated mitochondria (TPP-selective electrode). Type of experiment: biochemical. The following applies: energized with 10 mM succinate, reversed by FCCP. The protocol: FIG. 8 is a trace showing the uptake of MitoSNAP and MitoNAP by energized mitochondria measured using an ion-selective electrode. For (a) and (b) mitochondria (2 mg protein/ml) were incubated in KCl buffer supplemented with rotenone in a stirred 3 ml chamber thermostatted at 37° C. and shielded from ambient light. An electrode selective for the TPP cation was inserted and calibrated by five sequential 1 μM additions of MitoNAP (a) or MitoSNAP (b). Succinate (10 mM) was then added to energize the mitochondria, followed by the uncoupler FCCP (0.5 μM). Rapid uptake of MitoNAP by energized mitochondria was observed and this was reversed by abolishing the membrane potential with the uncoupler FCCP (a). Energised mitochondria also rapidly accumulated MitoSNAP (b). However, in contrast to MitoNAP, uncoupling apparently led to only partial release of the accumulated MitoSNAP (b). This apparent incomplete release of MitoSNAP on uncoupling is presumably because MitoSNAP is converted to MitoNAP within mitochondria and this generates a different response from the electrode.
Mitochondrial incubations were usually in KCl buffer (120 mM KCl, 10 mM HEPES, 1 mM EGTA, 100 μM N,N-bis(2-bis[carboxymethyl]aminoethyl) glycine (DTPA) and 10 μM neocuproine, pH 7.2) with 10 mM succinate and 4 μg/ml rotenone in the dark at 37° C., unless stated otherwise. An electrode selective for the TPP moiety of MitoSNAP and MitoNAP was made and used as described previously (Asin-Cayuela, J., Manas, A. R., James, A. M., Smith, R. A. & Murphy, M. P. Fine-tuning the hydrophobicity of a mitochondria-targeted antioxidant. FEBS Letts. 571, 9-16 (2004)). Respiration rates were measured in a Clark type O2 electrode (Rank Brothers, UK). To measure GSH and GSSG, mitochondria (1 mg protein/ml) were incubated with 0-10 μM MitoSNO1 or MitoNAP for 10 min, pelleted by centrifugation and the GSH and GSSG contents assessed by the recycling assay (Scarlett, J. L., Packer, M. A., Porteous, C. M. & Murphy, M. P. Alterations to glutathione and nicotinamide nucleotides during the mitochondrial permeability transition induced by peroxynitrite. Biochem. Pharmacol. 52, 1047-1055 (1996)). The measurement of exposed mitochondrial protein thiols is described below.
Rat liver mitochondria (1 mg protein/ml) in KCl buffer was incubated at 37° C. with 5 μM MitoSNO. 1 μM additions of MitoSNO were made sequentially before addition of 10 mM succinate. 200 nM FCCP was then added to uncouple the mitochondria. The concentrations of O2 and MitoSNO in solution were measured simultaneously using a Clark-type O2 electrode in combination with an ion-selective electrode for triphenylphosphonium cation (TPP^+). […] This can be seen in FIG. 3.
When succinate was added, the mitochondria started respiring and set up a Δψ, which caused a decrease in the MitoSNO concentration, as detected by the ion-selective electrode (FIG. 3). When the mitochondria were uncoupled by FCCP, a concomitant increase in the concentration of MitoSNO, or its derivatives, in the medium was detected by the ion-selective electrode. The amount of MitoSNO taken up into the mitochondria from the trace in FIG. 3 corresponds to ˜2.5 μM of the initial external concentration of 5 μM. Therefore 7.5 nmol MitoSNO have been taken up into 3 mg protein, and as the mitochondrial volume is ˜0.5 μl/mg protein (Brown, G. C. and Brand, M. D. Biochem J., 1985, 225, 399-405), the concentration of MitoSNO within mitochondria is ˜5 mM. This represents a 2000 fold concentration relative to the 2.5 μM present in the external medium, and is consistent with a Nernstian uptake of MitoSNO.

In experiment [2] the test system is complex I. Kind of experiment: Respiration by bovine heart mitochondrial membranes on NADH or succinate. It counts as biochemical. The following applies: 75 μM, 5 min. On the procedure:
(a) Effect of MitoSNAP on mitochondrial respiration.
Mitochondrial preparations and incubations.

Experiment [3] concerns HeLa cells. The experiment can be described thus: Cell hypoxia experiment, extracellular pO2 by fluorescence quenching oximetry. Type of experiment: cell-based. Conditions: 1% O2, 30 min incubation, compared to untreated controls. The protocol: FIG. 10 is a series of traces and graphs showing the effect of MitoSNAP on respiration in cells. (a-d) Jurkat cells (55×10^6 cells) were incubated in PBS supplemented with 25 mM Hepes pH 7.2 (NaOH), 1 mM sodium pyruvate, 10 μM neocuproine and 100 μM DTPA in the stirred 2.5 ml chamber of an oxygen electrode at 37° C. with 5 μM MitoSNAP (a), MitoNAP (b), SNAP (c) or MitoSNAP and FCCP (500 nM) (d). Where indicated 5 μM OxyHb was added. Traces show typical experiments that were repeated at least three times. Sections of the 02 electrode trace where OxyHb was added for (a) and (b) have been expanded 4-fold in the vertical dimension to facilitate inspection. […] Cellular pO2 values, measured by fluorescence quenching oximetry and expressed as mean±sd, are shown. […]
HeLa cells were seeded and grown to 100% confluence with 15 ml medium/dish on 165 cm^2 dishes. […] Extracellular pO2 measurements were taken by fluorescence quenching oximetry (Oxylite-2000; Oxford Optronix). […]
To evaluate the selective uptake of MitoSNAP by mitochondria within cells, the effect of MitoSNAP on respiration by Jurkat cells, a T lymphocyte cell line that grows in suspension, was measured using an O2 electrode (FIG. 10). […] Then the effects of a further 30 min incubation with MitoSNAP, MitoNAP or the mitochondrial inhibitor myxathiazol on the steady-state extracellular pO2 was assessed by fluorescence quenching oximetry (FIG. 10e).

As for `CC(=O)NC(C(=O)NCCCCC[P+](c1ccccc1)(c1ccccc1)c1ccccc1)C(C)(C)SN=O.CS(=O)(=O)[O-]` (stereo not shown) [MitoSNAP, [5-(2-acetylamino-3-methyl-3-nitrosothio-butyrylamino)-penty1]-triphenylphosphonium methanesulfonate], the “uptake by isolated mitochondria” value in experiment [1] is reported as “significant Δψ-dependent uptake”. Moreover, in experiment [2], the “effect on succinate respiration” value was “unaffected” and the “inhibition of NADH respiration” value is recorded as “about 35%”. Besides, in experiment [3], the “effect on steady-state extracellular pO2 during hypoxia” value is listed as “increased extracellular O2”.

The values above are taken from patent US9045505B2, “Nitric oxide donors” (University of Otago, priority 2006, dated 2015).
